Data as given in patent US12063914B2, “DNA sequence that increases odorant receptor representation in the olfactory system” (Research Foundation of the City University of New York, priority 2015, dated 2024).

Legend:
M71 OR [1] = target: T1, M71 OR (Mus musculus, UniProt Q60893); assay: Two-bottle discrimination behavioral avoidance task (odor detection threshold) with 24dMACP; assay type: in vivo; conditions: naïve, 10^−6 dilution, 24 hr
T1 construct: the increase of OSNs expressing the M71 OR results in the coalescence of labeled axons; expressed in transfected cells; host or cells: olfactory sensory neurons of living transgenic mice (4•M71Cα, 5•M71Cα), made by pronuclear injection of the M71 minigene
T1 sequence (Q60893 1-309): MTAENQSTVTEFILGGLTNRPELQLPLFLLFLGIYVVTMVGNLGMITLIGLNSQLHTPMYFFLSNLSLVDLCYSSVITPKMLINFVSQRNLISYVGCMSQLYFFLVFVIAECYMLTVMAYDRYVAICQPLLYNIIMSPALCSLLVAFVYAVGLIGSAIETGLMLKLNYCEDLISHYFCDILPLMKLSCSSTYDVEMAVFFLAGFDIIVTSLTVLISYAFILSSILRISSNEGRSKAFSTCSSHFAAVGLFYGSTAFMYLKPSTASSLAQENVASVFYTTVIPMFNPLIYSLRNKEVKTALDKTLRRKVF

[2] = at 25° C.; cited from earlier work
M71 OR [3] = target: T1, M71 OR; assay: Two-bottle discrimination behavioral avoidance task (odor detection threshold) with 24dMACP; assay type: in vivo
Experimental: Sensitivity studies performed in Wistar rat neonates and adults have shown that the highest sensitivity to an odor (lowest threshold) correlates with the highest OSN density in the MOE. […] Therefore, it was desirable to assess whether detection of the most robust M71 ligand is amplified in this M71 line. An avoidance task was used in which the odorant 24dMACP is added to drinking water and becomes an aversive stimulus associated with injection of Lithium Chloride (LiCl), a compound known to induce gastric malaise. After conditioning homozygous 4•M71Cα animals and their WT littermates to water containing a 10-4 dilution of 24dMACP, the animals are given the choice between plain water and water with decreasing concentrations of 24dMACP (10^−4, 10^−6, 5×10^−7 and 10^−7). Note that all tested animals are homozygous for M71G, so even WT have a functional M71 OR.
The results are presented as a preference index (PI) for the odorized water for each group of animals which is calculated as the amount of the odorized water consumed divided by the total amount of liquid (odor and no-odor water) consumed over a 24 hr time period (FIG. 3A). A PI of 50% reflects no preference of the animal. […] When presented with 10^−4 and 10^−6 dilutions, both conditioned 4•M71Cα homo and WT animals show a clear aversion towards 24dMACP reflected through an average PI for 24dMACP of about 10%. However, when 24dMACP is delivered at 10^−7 all animals fail to detect the presence of the odor with an average PI of 53.41% for the WT (n=4) and 62.67% for the homozygous animals (n=8).
To compare specific odorant sensitivity between the 5•M71Cα and the 4•M71Cα line, the 2-bottle discrimination behavioral task was performed with 24dMACP as described above (FIG. 3B). […] Even though the same but slightly more significant 0.3 log decrease in odorant detection threshold is observed in the 5•M71Cα line, it is important to mention that 5•M71Cα hemi animals were used which have about 1.6% of their OSNs expressing M71 (similar to the 4•M71Cα homo animals with about 2% M71 expressing OSNs).
Olfactory behavior test: A two-bottle discrimination test was performed as previously described. Since the mice are tested for the ability to detect a single odor in drinking water at increasingly lower concentrations, this discrimination assay is also considered a detection threshold test. Mice 8 weeks old were individually housed and given food ad libitum but restricted access to saccharin-phthalic acid solution (2.1×10^−2 M sodium saccharin and 10^−3M phthalic acid pH 6.5) for 1 h twice a day for two days before the assay begins. This ensures mice would commence drinking the solution during the conditioning. On day 3 (conditioning day) mice are exposed to sodium saccharine phthalic acid (SSPA) solution with 1 dilution of odorized water for 10 minutes. Immediately after, they are injected with lithium chloride intraperitoneally (15 μl/g body weight of a 0.6 M solution) to induce the aversive malaise and lethargy state. After two hours mice are returned to their home cage and given access to two bottles of drinking water; they are given the choice between SSPA solution containing a 10^−4 dilution of the odor versus the non-odorized SSPA solution. During the following 3 days, every 24 hours, the location of the bottles is reversed and the concentration of the odorized solution is decreased to 10^−6, 10^−7 and 0.5×10^−6, respectively. Every day both bottles are weighed to determine the amount of liquid consumed. A preference index was calculated as the amount of odorized solution consumed divided by the total amount of water solution consumed for each mouse for every 24 hour test period at each odor concentration. Student's t test was performed to test statistical significance, assuming two-tailed distribution and two-sample unequal variance. Values are mean±SEM and are plotted on a LOG scale.

In the case of CC(=O)c1ccc(C)cc1C [24dMACP, 2,4-dimethyl acetophenone], the “preference index (PI) for odorized water” value (M71 OR [1]; unconditioned 4•M71Cα Homo mice) is given as 59%, the “preference index (PI) for odorized water” value (M71 OR [1]; unconditioned WT mice) is given as 60% and the “saturated vapor pressure (Ps)” value [2] is given as 0.0811 mmHg. For the same compound, the “average PI” value (M71 OR [3]; 5•M71Cα hemi group, dilution 5×10^−7) was 19.62%, the “decrease in odorant detection threshold” value (M71 OR [3]; 5•M71Cα line vs WT (same as 4•M71Cα line)) was 0.3 log and the “average PI” value (M71 OR [3]; WT group of the 5•M71Cα experiment, dilution 5×10^−7) was 55.32%. For the same compound, the “average PI” value (M71 OR [3]; conditioned 4•M71Cα homo and WT animals, 10^−4 and 10^−6 dilutions) was “about 10%”, the PI (M71 OR [3]; conditioned 4•M71Cα homozygous mutants, 5×10^−7 dilution) was 26.12% and the “average PI” value (M71 OR [3]; conditioned 4•M71Cα homozygous, 10^−7 dilution) was 62.67%. For the same compound, the PI (M71 OR [3]; conditioned WT (littermates of 4•M71Cα), 5×10^−7 dilution) was 62.79%, the PI (M71 OR [3]; conditioned WT, 10^−4 dilution) was 11.84% and the “average PI” value (M71 OR [3]; conditioned WT, 10^−7 dilution) was 53.41%.
